≈ marks a conversion by molar mass, not a printed value. Calls of active or inactive are those of the source. No cut-off for these calls is given here.
Columns and labels:
[1] = system: Staphylococcus aureus; test: Antibacterial activity against methicillin resistant Staphylococcus aureus ATCC 43300 assessed as post antibiotic effect at 8 times of MIC incubated for 1 hrs and measured after 8 hrs; assay type: functional; conditions: time 9 hrs
[2] = system: Staphylococcus aureus; test: Bactericidal activity against methicillin resistant Staphylococcus aureus ATCC 43300 at 8 times of MIC measured a 6 to 24 hrs by time-kill kinetic assay; assay type: functional, organism-based; conditions: time 6-24 hrs
[3] = system: Staphylococcus aureus; test: Drug resistance, ratio of MIC for methicillin-resistant Staphylococcus aureus ATCC 43300 measured after 8 passages to MIC for methicillin-resistant Staphylococcus aureus during first exposure; assay type: functional
[4] = system: Staphylococcus aureus; test: Drug resistance, ratio of MIC for methicillin-resistant Staphylococcus aureus ATCC 43300 measured after 10 passages to MIC for methicillin-resistant Staphylococcus aureus during first exposure; assay type: functional
[5] = system: Escherichia coli; test: Antibacterial activity against Escherichia coli ATCC 25922 assessed as inhibition of bacterial growth by broth microdilution method; assay type: functional
[6] = system: Pseudomonas aeruginosa; test: Antibacterial activity against Pseudomonas aeruginosa ATCC 27853 assessed as inhibition of bacterial growth by broth microdilution metho; assay type: functional
[7] = system: Staphylococcus aureus; test: Antibacterial activity against Staphylococcus aureus ATCC 29213 assessed as inhibition of bacterial growth by broth microdilution method; assay type: functional
[8] = target: DNA gyrase (Escherichia coli) (UniProt P0AES6+P0AES4); test: Inhibition of Escherichia coli DNA gyrase assessed as residual activity at 1 uM by supercoiling plate assay relative to control; assay type: protein-complex assay
[9] = target: T1, DNA topoisomerase 2-alpha (Homo sapiens, UniProt P11388); test: (§1) Inhibition of human DNA topoisomerase 2-alpha using linear pBR322 as substrate assessed as conversion of NADH to NAD+ by measuring residual activity at 40 uM preincubated for 10 to 15 mins in presence of pyruvate kinase/lactate dehydrogenase mix followed by ATP addition and measured after 30 mins by ATPase assay relative to control; conditions: time 40-55 min
[10] = system: MCF7; test: Cytotoxicity against human MCF7 cells assessed as cell viability at 50 uM incubated for 72 hrs by CellTiter 96 aqueous one solution reagent based MTS assay relative to control; assay type: functional; conditions: read-out: Activity
[11] = system: Staphylococcus aureus; test: Antibacterial against methicillin resistant Staphylococcus aureus ATCC 43300 assessed as inhibition of bacterial growth by broth microdilution method; assay type: functional; conditions: time 24 hrs
[12] = system: Acinetobacter baumannii; test: Antibacterial activity against Acinetobacter baumannii ATCC 17978 assessed as inhibition of bacterial growth by broth microdilution method; assay type: functional
[13] = system: Staphylococcus aureus; test: Bactericidal activity against Staphylococcus aureus ATCC 43300 at 8 times MIC measured after 8 hrs by time kill assay; assay type: functional, organism-based
[14] = system: Klebsiella pneumoniae; test: Antibacterial activity against Klebsiella pneumoniae ATCC 10031 assessed as inhibition of bacterial growth by broth microdilution method; assay type: functional
[15] = system: Enterococcus faecium; test: Antibacterial activity against vancomycin-resistant Enterococcus faecium ATCC 700221 assessed as inhibition of bacterial growth by broth microdilution method; assay type: functional
[16] = target: DNA gyrase (Escherichia coli, UniProt P0AES4+P0AES6); test: Inhibition of Escherichia coli DNA gyrase by supercoiling plate assay; assay type: protein-complex assay
[17] = Inhibition of Escherichia coli DNA topoisomerase-IV relaxation plate assay
[18] = system: Staphylococcus aureus; test: Antibacterial against vancomycin-intermediate Staphylococcus aureus ATCC 700699 assessed as inhibition of bacterial growth by broth dilution method; assay type: functional
[19] = target: T1, DNA topoisomerase 2-alpha; test: as §1, with “100” for “40”; conditions: time 40-55 min
[20] = system: Enterobacter cloacae; test: Antibacterial activity against Enterobacter cloacae subsp. cloacae ATCC 13047 assessed as inhibition of bacterial growth by broth microdilution method; assay type: functional
[21] = system: Staphylococcus aureus; test: Antibacterial activity against methicillin resistant Staphylococcus aureus ATCC 43300 assessed as assessed as bacterial killing incubated for 24 hrs by time-kill kinetics assay; assay type: functional, organism-based
[22] = system: Enterococcus faecalis; test: Antibacterial activity against Enterococcus faecalis ATCC 29212 assessed as inhibition of bacterial growth by broth microdilution method; assay type: functional
[23] = target: DNA gyrase (Staphylococcus aureus) (UniProt P0A0K8+P20831); test: Inhibition of Staphylococcus aureus DNA gyrase assessed as residual activity at 0.1 uM by supercoiling plate assay relative to control; assay type: protein-complex assay
[24] = system: Escherichia coli; test: Inhibition of Escherichia coli DNA topoisomerase-IV assessed as residual activity at 10 uM by relaxation plate assay relative to control
[25] = target: T1, DNA topoisomerase 2-alpha; test: as §1, with “10” for “40”; conditions: time 40-55 min

T1 sequence (P11388 whole entry): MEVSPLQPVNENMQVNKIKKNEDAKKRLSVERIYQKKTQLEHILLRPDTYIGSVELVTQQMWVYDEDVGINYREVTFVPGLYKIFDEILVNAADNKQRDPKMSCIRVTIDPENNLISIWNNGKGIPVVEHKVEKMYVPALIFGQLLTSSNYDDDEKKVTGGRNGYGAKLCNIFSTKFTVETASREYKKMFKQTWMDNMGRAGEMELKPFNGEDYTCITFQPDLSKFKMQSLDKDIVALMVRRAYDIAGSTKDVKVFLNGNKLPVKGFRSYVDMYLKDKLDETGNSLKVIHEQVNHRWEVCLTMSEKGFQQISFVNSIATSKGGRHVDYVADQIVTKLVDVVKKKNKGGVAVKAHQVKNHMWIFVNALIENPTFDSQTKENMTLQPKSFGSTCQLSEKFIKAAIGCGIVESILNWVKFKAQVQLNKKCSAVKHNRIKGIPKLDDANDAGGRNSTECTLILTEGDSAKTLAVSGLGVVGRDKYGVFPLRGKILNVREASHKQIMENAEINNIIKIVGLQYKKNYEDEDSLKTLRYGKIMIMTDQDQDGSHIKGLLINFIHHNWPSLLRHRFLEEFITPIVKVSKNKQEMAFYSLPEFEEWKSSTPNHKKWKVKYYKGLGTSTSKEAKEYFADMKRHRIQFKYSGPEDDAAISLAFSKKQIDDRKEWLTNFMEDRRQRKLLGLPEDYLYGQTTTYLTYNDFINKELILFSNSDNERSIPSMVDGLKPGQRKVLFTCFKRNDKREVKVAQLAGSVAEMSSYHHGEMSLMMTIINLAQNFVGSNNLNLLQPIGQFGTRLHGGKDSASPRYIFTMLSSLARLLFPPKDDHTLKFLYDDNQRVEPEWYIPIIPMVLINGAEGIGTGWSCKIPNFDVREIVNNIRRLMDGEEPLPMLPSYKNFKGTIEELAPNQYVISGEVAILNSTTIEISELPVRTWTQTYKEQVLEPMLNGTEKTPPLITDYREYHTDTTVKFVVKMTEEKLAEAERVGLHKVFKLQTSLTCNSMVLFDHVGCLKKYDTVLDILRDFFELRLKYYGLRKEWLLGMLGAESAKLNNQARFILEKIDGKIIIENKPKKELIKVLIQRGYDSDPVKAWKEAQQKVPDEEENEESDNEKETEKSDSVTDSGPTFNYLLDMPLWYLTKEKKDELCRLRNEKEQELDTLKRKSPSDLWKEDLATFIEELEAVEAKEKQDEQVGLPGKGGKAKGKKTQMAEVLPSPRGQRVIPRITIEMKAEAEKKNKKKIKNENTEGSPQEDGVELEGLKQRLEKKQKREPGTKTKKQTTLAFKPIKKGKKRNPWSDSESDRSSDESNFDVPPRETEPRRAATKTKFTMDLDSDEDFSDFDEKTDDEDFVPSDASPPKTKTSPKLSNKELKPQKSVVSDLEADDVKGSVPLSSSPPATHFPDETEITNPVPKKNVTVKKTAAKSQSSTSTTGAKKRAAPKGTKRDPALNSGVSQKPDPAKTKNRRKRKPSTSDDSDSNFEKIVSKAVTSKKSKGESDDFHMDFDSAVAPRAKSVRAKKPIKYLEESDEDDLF
DNA gyrase (Staphylococcus aureus), sequence (P0A0K8 2-644 limits assumed): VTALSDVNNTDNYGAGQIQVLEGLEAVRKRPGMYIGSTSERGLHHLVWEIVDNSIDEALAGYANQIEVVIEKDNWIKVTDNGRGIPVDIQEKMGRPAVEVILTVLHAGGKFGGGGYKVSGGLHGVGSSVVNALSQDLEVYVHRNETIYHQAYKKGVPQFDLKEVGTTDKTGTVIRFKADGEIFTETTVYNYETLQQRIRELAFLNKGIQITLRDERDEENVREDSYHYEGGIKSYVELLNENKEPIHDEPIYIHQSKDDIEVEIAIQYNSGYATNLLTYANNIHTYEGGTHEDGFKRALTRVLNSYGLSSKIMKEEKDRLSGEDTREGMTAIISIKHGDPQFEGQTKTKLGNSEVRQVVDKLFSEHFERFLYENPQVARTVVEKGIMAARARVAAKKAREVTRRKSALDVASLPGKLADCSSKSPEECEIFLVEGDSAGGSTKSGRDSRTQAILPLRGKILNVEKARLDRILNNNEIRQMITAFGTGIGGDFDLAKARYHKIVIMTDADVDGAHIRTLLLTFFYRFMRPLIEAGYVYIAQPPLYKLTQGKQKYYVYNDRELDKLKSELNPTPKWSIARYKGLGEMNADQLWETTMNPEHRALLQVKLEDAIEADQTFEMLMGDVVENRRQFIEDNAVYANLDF
DNA gyrase (Staphylococcus aureus), sequence (P20831 whole entry partner): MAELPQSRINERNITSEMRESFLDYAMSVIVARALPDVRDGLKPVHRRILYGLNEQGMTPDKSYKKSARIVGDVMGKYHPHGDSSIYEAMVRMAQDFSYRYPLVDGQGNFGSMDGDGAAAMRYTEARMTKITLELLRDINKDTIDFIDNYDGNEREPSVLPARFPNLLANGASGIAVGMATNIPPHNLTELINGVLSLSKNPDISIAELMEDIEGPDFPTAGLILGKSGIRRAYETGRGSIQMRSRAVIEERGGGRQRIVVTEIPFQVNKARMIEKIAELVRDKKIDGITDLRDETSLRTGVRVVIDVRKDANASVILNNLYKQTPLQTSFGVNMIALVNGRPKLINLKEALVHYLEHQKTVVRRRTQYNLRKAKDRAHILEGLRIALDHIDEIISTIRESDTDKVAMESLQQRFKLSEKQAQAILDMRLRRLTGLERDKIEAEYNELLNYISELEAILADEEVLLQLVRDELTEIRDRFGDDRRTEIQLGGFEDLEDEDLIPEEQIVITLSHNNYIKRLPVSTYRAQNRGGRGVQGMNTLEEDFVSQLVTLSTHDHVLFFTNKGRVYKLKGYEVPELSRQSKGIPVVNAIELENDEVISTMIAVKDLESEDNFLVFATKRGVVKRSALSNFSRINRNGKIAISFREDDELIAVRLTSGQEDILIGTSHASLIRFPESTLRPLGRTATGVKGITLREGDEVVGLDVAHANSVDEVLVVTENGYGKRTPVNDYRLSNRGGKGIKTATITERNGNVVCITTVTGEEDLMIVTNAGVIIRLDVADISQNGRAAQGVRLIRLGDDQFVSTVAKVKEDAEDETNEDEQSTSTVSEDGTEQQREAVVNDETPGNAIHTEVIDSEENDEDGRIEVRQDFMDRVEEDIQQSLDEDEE

SMILES | PAE [1] | Ratio [3] | Ratio [4] | MIC [5] | MIC [6] | MIC [7] | Activity [9] | viability at 50 µM [10] | MIC [11] | MIC [15] | IC50 [16] | Activity [19] | Activity [24] | other results
O=C(O)c1cn(C2CC2)c2cc(N3CCNCC3)c(F)cc2c1=O [CIPROFLOXACIN] | 2 h | 8 | 16 |  |  |  |  |  |  |  |  |  |  | Activity [2]: Active
Cc1nnc(-c2ccc(NC(=O)c3[nH]c(C)c(Cl)c3Cl)c(OC(C)C)c2)o1 |  |  |  | > 64 µg/mL | > 64 µg/mL | > 64 µg/mL | 115% |  |  |  |  |  |  | Activity [8]: 95%
Cc1[nH]c(C(=O)Nc2ccc(-c3noc(=O)[nH]3)cc2NC2CCN(C(=O)OC(C)(C)C)CC2)c(Cl)c1Cl | 2 h | 4 | 128 | > 64 µg/mL | > 64 µg/mL | 2 µg/mL (≈ 3.63 µM) |  | 64% | 0.5 µg/mL (≈ 0.907 µM) | 0.063 µg/mL (≈ 0.114 µM) | 6.92 nM | 98% |  | MIC [12]: > 64 µg/mL; Activity [13]: Active; MIC [14]: > 64 µg/mL; IC50 [17]: 1680 nM; MIC [18]: < 0.031 µg/mL; MIC [20]: > 64 µg/mL; Activity [21]: Dose-Dependent Effect; MIC [22]: < 0.031 µg/mL
Cc1[nH]c(C(=O)Nc2ccc(-n3nn[nH]c3=O)cc2N2CCC(NC(=O)OC(C)(C)C)CC2)c(Cl)c1Cl |  |  |  |  |  |  |  |  |  |  | 33 nM | 34% | 63% | Activity [23]: 65%
Cc1[nH]c(C(=O)Nc2ccc(-c3noc(=O)[nH]3)cc2N2CCOCC2)c(Cl)c1Cl |  |  |  | > 32 µg/mL | > 32 µg/mL | 4 µg/mL (≈ 9.13 µM) | 119% | 101% | 2 µg/mL (≈ 4.56 µM) | 0.5 µg/mL (≈ 1.14 µM) | 13 nM |  | 76% | 
Cc1[nH]c(C(=O)Nc2ccc(-c3nnn[nH]3)cc2N2CCCC(CNC(=O)OC(C)(C)C)C2)c(Cl)c1Cl (stereo not drawn) |  |  |  |  |  |  |  |  |  |  | 280 nM |  |  | Activity [25]: 95%
